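48-hour exposure; five concentrations; linearly interpolated endpoints. At the GI50, growth is halved.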 The source made the active and inactive calls. Rule as the data show it: active = GI50 up to about 1.1 µM and inactive = higher.
Tests used:
Test in all cases: NCI tumour cell line growth inhibition, 48 h
LXFL 529 = system: LXFL 529
UO-31 = system: UO-31
ACHN = system: ACHN
SW-620 = system: SW-620
SK-MEL-28 = system: SK-MEL-28
NCI-H460 = system: NCI-H460
SN12C = system: SN12C
HOP-62 = system: HOP-62
IGROV-1 = system: IGROV-1
NCI-H522 = system: NCI-H522
SK-MEL-5 = system: SK-MEL-5
HCT-116 = system: HCT-116
A549 = system: A549
SK-MEL-2 = system: SK-MEL-2
HCC 2998 = system: HCC 2998
HT-29 = system: HT-29
M19-MEL = system: M19-MEL
SF-268 = system: SF-268
SNB-19 = system: SNB-19
TK-10 = system: TK-10
HOP-92 = system: HOP-92
KM-20L2 = system: KM-20L2
786-0 = system: 786-0
LOX IMVI = system: LOX IMVI
CAKI-1 = system: CAKI-1
OVCAR-3 = system: OVCAR-3
UACC-62 = system: UACC-62
KM12 = system: KM12
DMS-273 = system: DMS-273
OVCAR-4 = system: OVCAR-4
SF-295 = system: SF-295
UACC-257 = system: UACC-257
M14 = system: M14
SF-539 = system: SF-539
EKVX = system: EKVX
OVCAR-8 = system: OVCAR-8
U-251 = system: U-251
HCT-15 = system: HCT-15
DLD-1 = system: DLD-1
NCI-H23 = system: NCI-H23
OVCAR-5 = system: OVCAR-5
MDA-N = system: MDA-N
COLO 205 = system: COLO 205
BT-549 = system: BT-549
SR = system: SR
PC-3 = system: PC-3
T47D = system: T47D
K562 = system: K562
MDA-MB-231 = system: MDA-MB-231
SNB-75 = system: SNB-75
NCI/ADR-RES = system: NCI/ADR-RES
Malme-3M = system: Malme-3M
A498 = system: A498
CCRF-CEM = system: CCRF-CEM
MDA-MB-435 = system: MDA-MB-435
NCI-H226 = system: NCI-H226
RXF 393 = system: RXF 393
MCF7 = system: MCF7
HL-60 = system: HL-60
SK-OV-3 = system: SK-OV-3
MOLT-4 = system: MOLT-4
RPMI-8226 = system: RPMI-8226
DU-145 = system: DU-145
Hs-578T = system: Hs-578T

## CCN(CC)C(=O)c1ccc(C)c(/N=N/N(C)C)c1
LXFL 529
  GI50: > 100 µM (inactive)
UO-31
  GI50: > 100 µM (inactive)
ACHN
  GI50: > 100 µM (inactive)
SW-620
  GI50: > 100 µM (inactive)
SK-MEL-28
  GI50: > 100 µM (inactive)
NCI-H460
  GI50: > 100 µM (inactive)
SN12C
  GI50: > 100 µM (inactive)
HOP-62
  GI50: > 100 µM (inactive)
IGROV-1
  GI50: > 100 µM (inactive)
NCI-H522
  GI50: 44 µM (inactive)
SK-MEL-5
  GI50: > 100 µM (inactive)
HCT-116
  GI50: > 100 µM (inactive)
A549
  GI50: > 100 µM (inactive)
SK-MEL-2
  GI50: > 100 µM (inactive)
HCC 2998
  GI50: > 100 µM (inactive)
HT-29
  GI50: > 100 µM (inactive)
M19-MEL
  GI50: > 100 µM (inactive)
SF-268
  GI50: > 100 µM (inactive)
SNB-19
  GI50: > 100 µM (inactive)
TK-10
  GI50: > 100 µM (inactive)
HOP-92
  GI50: > 100 µM (inactive)
KM-20L2
  GI50: > 10 µM (inactive)
786-0
  GI50: > 100 µM (inactive)
LOX IMVI
  GI50: > 100 µM (inactive)
CAKI-1
  GI50: > 100 µM (inactive)
OVCAR-3
  GI50: > 100 µM (inactive)
UACC-62
  GI50: > 100 µM (inactive)
KM12
  GI50: > 100 µM (inactive)
DMS-273
  GI50: > 100 µM (inactive)
OVCAR-4
  GI50: > 100 µM (inactive)
SF-295
  GI50: > 100 µM (inactive)
UACC-257
  GI50: > 100 µM (inactive)
M14
  GI50: > 100 µM (inactive)
SF-539
  GI50: > 100 µM (inactive)
EKVX
  GI50: > 100 µM (inactive)
OVCAR-8
  GI50: > 100 µM (inactive)
U-251
  GI50: > 100 µM (inactive)
HCT-15
  GI50: > 100 µM
DLD-1
  GI50: > 100 µM (inactive)
NCI-H23
  GI50: > 100 µM (inactive)

## C[C@@]12CCC(=O)C=C1CC[C@H]1C2=CC[C@]2(C)C1CC[C@@]2(C)O (some centres undefined)
OVCAR-5
  GI50: > 100 µM (inactive)
UO-31
  GI50: 41.9 µM (inactive)
MDA-N
  GI50: 23 µM (inactive)
COLO 205
  GI50: 35 µM (inactive)
BT-549
  GI50: 33.1 µM (inactive)
ACHN
  GI50: > 100 µM (inactive)
SW-620
  GI50: 40.6 µM (inactive)
SK-MEL-28
  GI50: > 100 µM (inactive)
NCI-H460
  GI50: 43.6 µM (inactive)
SN12C
  GI50: 88.7 µM (inactive)
HOP-62
  GI50: 67.8 µM (inactive)
SR
  GI50: 34.8 µM (inactive)
IGROV-1
  GI50: 79.3 µM (inactive)
PC-3
  GI50: 41.5 µM (inactive)
NCI-H522
  GI50: 28.1 µM (inactive)
SK-MEL-5
  GI50: 41.6 µM (inactive)
T47D
  GI50: 73.5 µM (inactive)
K562
  GI50: 38.4 µM (inactive)
HCT-116
  GI50: 52 µM (inactive)
MDA-MB-231
  GI50: 67.5 µM (inactive)
A549
  GI50: 50.4 µM (inactive)
SK-MEL-2
  GI50: 38 µM (inactive)
HCC 2998
  GI50: 49 µM (inactive)
SNB-75
  GI50: 66.1 µM (inactive)
HT-29
  GI50: 37.9 µM (inactive)
NCI/ADR-RES
  GI50: 34.7 µM (inactive)
Malme-3M
  GI50: > 100 µM (inactive)
SF-268
  GI50: 75.2 µM (inactive)
A498
  GI50: > 100 µM (inactive)
CCRF-CEM
  GI50: 40.4 µM (inactive)
MDA-MB-435
  GI50: 23.3 µM (inactive)
NCI-H226
  GI50: > 100 µM (inactive)
SNB-19
  GI50: > 100 µM (inactive)
TK-10
  GI50: > 100 µM (inactive)
HOP-92
  GI50: > 100 µM (inactive)
786-0
  GI50: > 100 µM (inactive)
LOX IMVI
  GI50: > 100 µM (inactive)
CAKI-1
  GI50: 48.3 µM (inactive)
RXF 393
  GI50: > 100 µM (inactive)
MCF7
  GI50: 57.3 µM (inactive)
OVCAR-3
  GI50: 34.1 µM (inactive)
HL-60
  GI50: 25.4 µM (inactive)
UACC-62
  GI50: 37 µM (inactive)
SK-OV-3
  GI50: 54.6 µM (inactive)
KM12
  GI50: 29.7 µM (inactive)
OVCAR-4
  GI50: 25.2 µM (inactive)
SF-295
  GI50: 32.3 µM (inactive)
UACC-257
  GI50: 69.2 µM (inactive)
MOLT-4
  GI50: 38.4 µM (inactive)
M14
  GI50: 50.6 µM (inactive)
RPMI-8226
  GI50: 54.7 µM (inactive)
SF-539
  GI50: 61.9 µM (inactive)
DU-145
  GI50: > 100 µM (inactive)
EKVX
  GI50: > 100 µM (inactive)
OVCAR-8
  GI50: > 100 µM (inactive)
U-251
  GI50: 41.3 µM (inactive)
HCT-15
  GI50: 36.2 µM
NCI-H23
  GI50: 66.8 µM (inactive)
Hs-578T
  GI50: 38.2 µM (inactive)
